From patent publication US20090186809A1, “USE OF VALPROIC ACID FOR THE TOPICAL TREATMENT OF MILD TO MODERATE ACNE VULGARIS” (TOPOTARGET GERMANY AG, priority 2006, published 2009)

Experiments:
[1] = VPA content in blood (serum) after topical application, HPLC; type: in vivo; settings: human, read-out: serum level of VPA
Protocol: (§1) VPA was provided as a clear off-white, semi-solid 3% gel (30 mg/ml VPA). After washing the face with a mild cleanser, the gel was applied daily to the clean and dry skin once daily.
In parallel, an analysis of the VPA content in the blood of acne vulgaris patients treated topically with a 3% VPA containing medication was performed using HPLC based methodology, and the results are presented in FIG. 3. […] These serum concentration levels were measured after daily treatment with up to approx. 2.000 mg of a 3% VPA containing medication topically applied which refers to a total daily dose of VPA approx. 60 mg. If more or larger lesions would be treated, and therefore higher daily amounts of VPA would be topically applied, it is expected that accordingly higher serum levels may be obtained.

[2] = patients' assessment of local tolerability (5-point scale) and adverse events; type: in vivo, human; settings: for assessments of local tolerability graded "acceptable" / assessments of local tolerability graded "poor" / assessments of local tolerability graded "well": percentage of all patient assessments over the study visits, topical
Protocol: • Safety laboratory parameters • Clinical safety examinations • Adverse events • Patient's assessment of local tolerability according to a 5-point scale.
In addition to the assessment of the therapeutical efficacy, the patients' assessments of local tolerability and the side effect profile was recorded in this clinical study described in example 1. FIG. 4 summarizes the patients' assessments of local tolerability which was recorded on each visit of the patients during the study period which took place on days 14, 24, 56 and 85. The patients assessed their perception of local tolerability according to the following grading scheme: […]

[3] = tested on: mild to moderate facial acne vulgaris; assay: double-blind, randomized clinical study: counting of facial acne lesions; type: in vivo, human; settings: for patients displaying for the first time a reduction of ≧30% in the total counts of all acne lesions: topical once daily, VPA 3% gel, isotretinoin 0.05% gel; for mean reduction of the number of acne lesions: day 85 compared to baseline (day 1), topical monotherapy
Protocol: This study was carried out as a double-blind, randomized study. Under informed consent patients with mild to moderate facial acne vulgaris were enrolled in the study. The treatment period was 12 weeks.
as §1
As a comparator reference therapy the retinoid isotretinoin was provided as a 0.05% gel (0.5 mg isotretinoin/g).
• Assessment of the therapeutic efficacy compared to the baseline was evaluated separately by the investigator and by the patient according to a 7-point scale • Counting of lesions in the entire face • Investigator's overall assessment of improvement by means of a photo documentation.
• efficacy: change of total count of facial acne lesions from baseline to the end of week 12 (comparing day 1 to day 85, i.e., d1, d85)
• efficacy: time to reduction of acne lesions by >30% • count of acne lesions in the face after 2, 4, 8 and 12 weeks of treatment and its percentage and absolute change to baseline • safety/tolerability: safety laboratory parameters • clinical safety • patient's assessment of local tolerability
In the clinical study described in Example 1, also the time to reduction of the total counts by ≧30% of all acne lesions treated was investigated on each visit of the patients to the study hospital. Once the reduction had reached ≧30%, the actual at this point estimated reduction rate and the day of the visit was recorded.
In the clinical study described in Example 1, the counts of acne lesions treated were also assessed as counts of different types of lesions separately, i.e., recording the number of inflammatory lesions, and recording the number of non-inflammatory lesions separately.

Row | Compound | concentration at 56 day ([1]; day 56, daily topical up to approx. 2.000 mg of 3% VPA medication (approx. 60 mg VPA)) | concentration at 85 day ([1]; day 85, daily topical up to approx. 2.000 mg of 3% VPA medication (approx. 60 mg VPA)) | adverse events observed ([2]; patients treated topically, all resolved after end of study) | assessments of local tolerability graded "acceptable" [2] | assessments of local tolerability graded "poor" [2] | assessments of local tolerability graded "well" [2] | patients displaying for the first time a reduction of ≧30% in the total counts of all acne lesions ([3]; day 28) | patients displaying for the first time a reduction of ≧30% in the total counts of all acne lesions ([3]; day 85) | mean reduction of the number of acne lesions [3] | median counts of inflammatory lesions ([3]; end of treatment day 85, day 1 before treatment 30) | median counts of non-inflammatory lesions ([3]; end of treatment day 85, day 1 before treatment 41)
1 | CCCC(CCC)C(=O)O [VPA, 2-propyl-pentanoic acid] | ≤ 2440 ng/mL | ≤ 1590 ng/mL | mild to moderate administration site conditions | 23.8% | 4.8% | 61.9% | three | two | approx. 57% | 14.4 lesions | 11.5 lesions
2 | CC1=C(/C=C/C(C)=C/C=C/C(C)=C\C(=O)O)C(C)(C)CCC1 [isotretinoin] | – | – | – | 40.5% | 11.9% | 38.1% | three | two | approx. 54% | – | –
